The record followed here is patent publication US20250099633A1, “NTSR1-TARGETED RADIOPHARMACEUTICALS AND CHECKPOINT INHIBITOR COMBINATION THERAPY” (Fusion Pharmaceuticals Inc., priority 2022, published 2025).

Data set [1] deals with mouse NTSR1 overexpressing tumors. Nature of the data set: [177Lu]-Compound A biodistribution in CT-26 syngeneic model. Format: in vivo. The settings on record: 6-48 hours post injection. On the procedure:
Tumor uptake was maintained at 2.5-7% injected dose/g (ID/g) from 6-48 hours post injection.

The subject of data set [2] is CT-26-mNTSR1 tumor. The data set can be described thus: Efficacy study in immunocompetent CT-26-mNTSR1 tumor bearing-mice (tumor volume). Type of data set: in vivo, mouse. The conditions noted are these: different doses; CT-26-mNTSR1 syngeneic mice with an intact immune system.
The test system of data set [3] is CT-26-mNTSR1 tumor. Nature of the data set: Combination with checkpoint inhibitors, survival in the CT-26-mNTSR1 mouse model. Type of data set: in vivo. The settings on record: for Overall survival: intravenous. As for the experimental part:
An in vivo study was conducted to test the effect of [^225Ac]-Compound A (as described in Example 3) combined with checkpoint inhibitors, α-CTLA-4 and α-PD-1 antibodies, on survival in the CT-26-mNTSR1 mouse model.
Separately, an in vivo study was conducted to test the effect of [^225Ac]-Compound A (as
described in Example 4) at a different dosage in combination with checkpoint inhibitors, α-CTLA-4 and α-PD-1 antibodies, on survival in the CT-26-mNTSR1 mouse model.

Data set [4] has as its system CT-26-mNTSR1 tumor. The data set can be described thus: Combination with checkpoint inhibitors, relative tumor volume in the CT-26-mNTSR1 mouse model. Format: in vivo. On the procedure: An in vivo study was conducted to test the effect of [^225Ac]-Compound A (as described in Example 3) combined with checkpoint inhibitors, α-CTLA-4 and α-PD-1 antibodies, on relative tumor volume in the CT-26-mNTSR1 mouse model.

With `COc1cccc(OC)c1-c1cc(C(=O)NC2(C(=O)O)C3CC4CC(C3)CC2C4)nn1-c1ccc(C(=O)N(C)CCCN(C)CCCN(C)C(=O)CN2CCN(CC(=O)O)CCN(CC(=O)O)CCN(CC(=O)O)CC2)cc1C(C)C` (stereo not drawn) [[177Lu]-Compound A, metal not drawn], the Tumor uptake in data set [1] is on record as 2.5-7 % injected dose/g (ID/g).
Consider `COc1cccc(OC)c1-c1cc(C(=O)NC2(C(=O)O)C3CC4CC(C3)CC2C4)nn1-c1ccc(C(=O)N(C)CCCN(C)CCCN(C)C(=O)CN2CCN(CC(=O)O)CCN(CC(=O)O)CCN(CC(=O)O)CC2)cc1C(C)C` (stereo not drawn) [[^225Ac]-Compound A, metal not drawn], for which, in the data set with CT-26-mNTSR1 tumor [2], the “Efficacy in reducing tumor volume” value was “enhanced efficacy in reducing tumor volume”. Also, the Overall survival result with CT-26-mNTSR1 tumor [3] (0.185 MBq/kg single-dose, with 5 mg/kg α-CTLA-4 or α-PD-1 (or both), compared to vehicle control or [225Ac]-Compound A alone) is listed as “increased overall survival”; in the data set with CT-26-mNTSR1 tumor [3] (0.555 MBq/kg single-dose, with 5 mg/kg α-CTLA-4 or α-PD-1, compared to the vehicle and [225Ac]-Compound A single treatment group) it was “increased overall survival”. The Survival entry in the data set on CT-26-mNTSR1 tumor [3] (0.555 MBq/kg, co-administration with both α-CTLA-4 and α-PD-1, compared to vehicle control or [225Ac]-Compound A with or without either antibody) is listed as “increased survival”. Also, the “Efficacy (tumor volume)” value in the data set on CT-26-mNTSR1 tumor [4] (0.185 MBq/kg or 0.555 MBq/kg single-dose, intravenous, co-administered with 5 mg/kg of CTLA-4 or PD-1 or both) is “increased efficacy was observed including tumor suppression”. In addition, in the data set on CT-26-mNTSR1 tumor [4] (0.555 MBg/kg dose, co-administration with both CTLA-4 and PD-1), the “Tumor regression, duration” value is reported as not below 40 days post-treatment. Further, the Tumor volume entry with CT-26-mNTSR1 tumor [4] (0.555 MBg/kg dose, co-administration with both CTLA-4 and PD-1, compared to vehicle control and 225Ac-radiopharmaceutical alone groups) is “significantly smaller tumor volume”; in the data set on CT-26-mNTSR1 tumor [4] (0.555 MBq/kg single-dose, intravenous, alone, relative to the vehicle control group), “greater reductions in tumor volume”.
